Laboratory results: US10780076B2, “Inhibition of cancer cell motility” (Northwestern University, priority 2014, dated 2020)

What was measured:
[1] = Systemic off-target effects: organ histology and organ function; type: in vivo, mice
From the text: FIG. 13. KBU2046 treatment is not associated with systemic off-target effects. […] After 35 days of treatment, the following organs were harvested at necropsy, and stained with H&E (alternative staining methods as indicated): heart, lungs, esophagus, stomach, colon, small intestine, liver (Trichrome staining), kidneys (Trichrome staining), adrenals, bladder, prostate, spleen, pancreas, brain, testes, and bone marrow and peripheral blood (Giemsa staining). Organs were examined for damage using a semi-quantitative histological scoring system (Knodell et al., 1981; herein incorporated by reference in its entirety). […] Changes in the liver observed in control mice were not increased by KBU2046 treatment. […] On day 8 and 14, all critical organs were weighed, and the following parameters measured in blood: cholesterol, triglycerides, alanine aminotransferase (ALT), aspartate aminotransferase (AST), total bilirubin, glucose, phosphorus, total protein, calcium, blood urea nitrogen (BUN), creatinine, albumin, Na, K, Cl, white blood cells (with differential), red blood cells, hemoglobin, platelets.
Orthotopic implantation of human PCa cells and quantification of distant metastasis was performed as described (Pavese et al., 2013; herein incorporated by reference in its entirety). […] Quantification of KBU2046 plasma concentrations was performed by LCMS. […]

[2] = tested on: human bone marrow stem cells; assay: Hematopoietic stem cell 14-day colony formation assay; type: cell-based; conditions: colonies at 14 days
Description: (FIG. 2A) Cell invasion. Human prostate metastatic cells (PC3, PC3-M), and HPV transformed normal (1532NPTX, I542NPTX) and primary cancer (1532CPTX, 1542CPTX) cells, were treated with 10 μM genistein (G), KBU2046 (46) or vehicle (CO), and after 3 days, cell invasion was measured. Values are mean±SEM. (FIG. 2B) Single cell migration. Cell migration was measured after treatment for 3 days with 10 μM KBU2046 or vehicle (control). Values are mean±SEM. *Denotes Student's t test P value </=0.05, compared to controls. […] Values are mean±SEM. (FIG. 2D) Human cord blood hematopoietic stem cell colony formation assay. Values are the mean±SD number of total, CFU-GM, CFU-GEMM or BFU-E colonies at 14 days after treatment with KBU2046. […]
Additional functional measures of toxicity included a NCI-based screen of the NCI 60-cell line panel (Shoemaker, 2006; herein incorporated by reference in its entirety), expression of estrogen-responsive genes by qRT/PCR (Ding et al., 2007; herein incorporated by reference in its entirety), induction of an estrogen-responsive promoter by luciferase assay (Breen et al., 2013; Catherino and Jordan, 1995; herein incorporated by reference in their entireties), and a hematopoietic stem cell 14-day colony formation assay (Bergan et al., 1996; herein incorporated by reference in its entirety). […] The migration of individual cells was assessed by time-lapse video microscopy.

human prostate cells = assay: Three day cell growth inhibition, prostate cells; type: cell-based; conditions: 3 days
[3] = Pharmacokinetics in CD1 mice; type: in vivo; conditions: single oral dose
Description: FIGS. 3A-D. KBU2046 inhibits cancer metastasis and prolongs life. (A, B) Inhibition of PCa metastasis. Cohorts of athymic mice bearing human PCa PC3-M cell orthotopic implants (A), or of non-tumor bearing athymic mice (B), were treated with KBU2046 incorporated into chow, and resultant lung metastasis (A) or plasma KBU2046 concentration (B) measured. Values are the mean±SEM. The relationship between dose and metastasis was evaluated by two-sided ANOVA (A). (C) Comprehensive characterization of KBU2046 phannacokinetics. CD1 mice were dosed with 100 mg KBU2046/kg via oral gavage or intravenous injection (iv), and blood collected at the indicated time points. The dotted horizontal line denotes a concentration of 24 nM, which was the concentration of KBU2046 measured in the blood of mice whose metastasis were suppressed by 92% (A, B). […]
FIG. 11. […] (top graph) Concentration versus time plot, expressed as ng/ml. The 100 mg dosing data was re-plotted and expressed as nM. […] Values are parameter estimates from a naive pooled data approach in which single plasma concentrations measured for individual animals were pooled for both routes of administration of both doses and modeled simultaneously.
Orthotopic implantation of human PCa cells and quantification of distant metastasis was performed as described (Pavese et al., 2013; herein incorporated by reference in its entirety). […]

NCI 60 cell line panel = NCI 60 cell line panel screen; type: cell-based, human; conditions: initial screening per DTP protocol
From the text: FIG. 8. […] KBU2046 was submitted to the Developmental Therapeutics Program (DTP) of the US National Cancer Institute (NCI), underwent initial screening across the NCI 60 cell line panel per DTP protocol (Shoemaker, 2006; herein incorporated by reference in its entirety), and the resultant COMPARE diagram is depicted.
Additional functional measures of toxicity included a NCI-based screen of the NCI 60-cell line panel (Shoemaker, 2006; herein incorporated by reference in its entirety), expression of estrogen-responsive genes by qRT/PCR (Ding et al., 2007; herein incorporated by reference in its entirety), induction of an estrogen-responsive promoter by luciferase assay (Breen et al., 2013; Catherino and Jordan, 1995; herein incorporated by reference in their entireties), and a hematopoietic stem cell 14-day colony formation assay (Bergan et al., 1996; herein incorporated by reference in its entirety). Protein Data Base (PDB) X-ray crystallographic structural data (PDB IDs: IX7R, IX7J) was used to determine what chemical groups of genistein bound to the ER. The migration of individual cells was assessed by time-lapse video microscopy.

For `O=C1c2ccccc2OCC1c1ccc(F)cc1` (racemic) [KBU2046, 4′-fluoroisoflavanone], the “organ damage by histologic examination” value ([1]; Balb/c athymic mice, 35 days of treatment) was “No organ damage was observed”, the “organ weights and blood chemistry/hematology parameters” value ([1]; CD1 mice, single iv 15, 75 or 125 mg/kg, day 8 and 14) was “No abnormal alterations in any of these parameters were observed” and the “toxicity to human bone marrow stem cells” value [2] was “not toxic”. The “toxicity to human prostate cells (cell growth inhibition)” value (human prostate cells) was “not toxic”, the “time plasma concentration maintained >24 nM” value [3] was 9.3 h and the “cell toxicity in NCI 60 cell line panel” value (NCI 60 cell line panel) was “minimal-to-no cell toxicity”.
